The results in this text go back to patent US20220169632A1, “METHODS AND MATERIALS FOR INCREASING OR MAINTAINING NICOTINAMIDE MONONUCLEOTIDE ADENYLYL TRANSFERASE-2 (NMNAT2) POLYPEPTIDE LEVELS” (University of Pittsburgh - Of the Commonwealth System of …, priority 2019, published 2022).

The test system of the experiment is NMNAT2. The experiment is described as follows: NMNAT2-Hibit nano-luciferase activity in stably transfected U87MG cells, various concentrations, 24 hours. It is filed as cell-based. The conditions noted are these: U87MG cells stably transfected with NMNAT2-Hibit luc plasmid. Here is the method: Selected compounds were tested in vitro. U87MG cells were stably transfected with NMNAT2-Hibit luc plasmid. Cells were treated with a test compound at various concentrations for 24 hours. Cells were then collected and assayed for nano-luciferase activity.
Take `Cc1ccc(C)c(Cn2cc3c4c(cccc42)C(=O)N(CCOc2ccccc2)CC3)c1` [BC20343]: the “E: compound efficacy for NMNAT2 activation (concentration giving >25% increase in NMNAT2 luciferase activity)” value is “+ (“+” >25% increase in NMNAT2 luciferase activity at >25 μM.)”. Regarding `Cc1ccc(C)c(Cn2c(C(F)F)c(CCC(=O)NCc3ccccc3F)c3ccccc32)c1` [BC20393], the “E: compound efficacy for NMNAT2 activation (concentration giving >25% increase in NMNAT2 luciferase activity)” value is “++ (“++” >25% increase in NMNAT2 luciferase activity at >1 μM ≤25 μM.)”.

On to `Cc1cccc(Cn2cc(CCCC(=O)NCCc3ccccc3)c3ccccc32)c1` [BC20172], for which the “E: compound efficacy for NMNAT2 activation (concentration giving >25% increase in NMNAT2 luciferase activity)” value is on record as “++ (“++” >25% increase in NMNAT2 luciferase activity at >1 μM ≤25 μM.)”. Next, `Cc1c(C)n(Cc2cccc(F)c2)c2ccc(C(=O)NCc3ccco3)cc12` [BC20101]: “+++ (“+++” >25% increase in NMNAT2 luciferase activity at ≤1 μM.)”; `Cc1ccccc1Cn1c(C)c(C)c2cc(C(=O)NCc3ccncc3)ccc21` [BC20209]: “++ (“++” >25% increase in NMNAT2 luciferase activity at >1 μM ≤25 μM.)”; `O=C(c1ccc(Cl)cc1)c1cn(CC(=O)N2CCN(C(=O)c3ccco3)CC2)c2ccccc12` [BC20182]: “+ (“+” >25% increase in NMNAT2 luciferase activity at >25 μM.)”. The same measure for `Cc1c(C)n(Cc2ccccc2F)c2ccc(C(=O)NCC3CCCO3)cc12` (centres unmarked) [BC20194]: “+ (“+” >25% increase in NMNAT2 luciferase activity at >25 μM.)”; for `Cc1cccc(Cn2cc(CCCC(=O)NC(C)Cc3ccco3)c3ccccc32)c1` (centres unmarked) [BC20171]: “+++ (“+++” >25% increase in NMNAT2 luciferase activity at ≤1 μM.)”.

On to `Cc1ccc(Cn2c3c(c4ccccc42)C(C(=O)NCc2ccccc2F)CCC3)cc1` (centres unmarked) [BC20385], for which the “E: compound efficacy for NMNAT2 activation (concentration giving >25% increase in NMNAT2 luciferase activity)” value is on record as “++ (“++” >25% increase in NMNAT2 luciferase activity at >1 μM ≤25 μM.)”. The same measure for `Cc1ccc(C)c(Cn2cc3c4c(cccc42)C(=O)NCC3)c1` [BC20313]: “+ (“+” >25% increase in NMNAT2 luciferase activity at >25 μM.)”; for `COc1ccccc1CNC(=O)[C@H]1C[C@@H]1c1cn(Cc2cc(C)ccc2C)c2ccccc12` (racemic) [BC20349]: “+ (“+” >25% increase in NMNAT2 luciferase activity at >25 μM.)”. In the case of `COc1ccc(CN2CC(C(=O)c3cn(Cc4ccccc4F)c4ccccc34)CC2=O)c(OC)c1` (centres unmarked) [BC20304], the “E: compound efficacy for NMNAT2 activation (concentration giving >25% increase in NMNAT2 luciferase activity)” value is “+ (“+” >25% increase in NMNAT2 luciferase activity at >25 μM.)”. In the case of `Cc1ccc(CNC(=O)C2CCc3c(c4ccccc4n3Cc3cccc(F)c3)C2)o1` (centres unmarked) [BC20221], the “E: compound efficacy for NMNAT2 activation (concentration giving >25% increase in NMNAT2 luciferase activity)” value is “+ (“+” >25% increase in NMNAT2 luciferase activity at >25 μM.)”. Next, `Cc1ccccc1CCN1CCc2cn(Cc3cccc(F)c3)c3cccc(c23)C1=O` [BC20314]: “+ (“+” >25% increase in NMNAT2 luciferase activity at >25 μM.)”; `Cc1cccc(CNC(=O)Cn2c3c(c4ccccc42)CC(C(=O)NCc2ccco2)CC3)c1` (centres unmarked) [BC20288]: “++ (“++” >25% increase in NMNAT2 luciferase activity at >1 μM ≤25 μM.)”; `O=C(Cn1c2c(c3ccccc31)CN(C(=O)NCC1CCCO1)CC2)NCc1ccco1` (centres unmarked) [BC20328]: “+ (“+” >25% increase in NMNAT2 luciferase activity at >25 μM.)”. As to `Cc1ccccc1Cn1cc(CCCC(=O)NCc2cccc(F)c2)c2ccccc21` [BC20152], the “E: compound efficacy for NMNAT2 activation (concentration giving >25% increase in NMNAT2 luciferase activity)” value is recorded as “++ (“++” >25% increase in NMNAT2 luciferase activity at >1 μM ≤25 μM.)”.

`Cc1ccccc1CNC(=O)Cn1cc2c3c(cccc31)C(=O)N(Cc1cccc(F)c1)CC2` [BC20356]: the “E: compound efficacy for NMNAT2 activation (concentration giving >25% increase in NMNAT2 luciferase activity)” value is given as “+ (“+” >25% increase in NMNAT2 luciferase activity at >25 μM.)”.

Turning to `CC(Cc1ccco1)NC(=O)Cn1cc(C(=O)c2ccc(Cl)cc2)c2ccccc21` (centres unmarked) [BC20214], the “E: compound efficacy for NMNAT2 activation (concentration giving >25% increase in NMNAT2 luciferase activity)” value is given as “+ (“+” >25% increase in NMNAT2 luciferase activity at >25 μM.)”. Turning to `Cc1c(C)n(Cc2cccc(F)c2)c2ccc(C(=O)NCC3CCCO3)cc12` (centres unmarked) [BC20110], the “E: compound efficacy for NMNAT2 activation (concentration giving >25% increase in NMNAT2 luciferase activity)” value is listed as “+++ (“+++” >25% increase in NMNAT2 luciferase activity at ≤1 μM.)”.

In the case of `Cc1c(C)n(Cc2cccc(F)c2)c2ccc(C(=O)N(CCCN3CCOCC3)Cc3ccco3)cc12` [BC20264], the “E: compound efficacy for NMNAT2 activation (concentration giving >25% increase in NMNAT2 luciferase activity)” value is “++ (“++” >25% increase in NMNAT2 luciferase activity at >1 μM ≤25 μM.)”. Next, `COc1ccccc1CNC(=O)C1CCc2c(c3ccccc3n2Cc2ccncc2)C1` (centres unmarked) [BC20282]: “+ (“+” >25% increase in NMNAT2 luciferase activity at >25 μM.)”; `Cc1ccc(C)c(Cn2c(C(F)F)c(CCC(=O)NCCc3ccccc3)c3ccccc32)c1` [BC20402]: “++ (“++” >25% increase in NMNAT2 luciferase activity at >1 μM ≤25 μM.)”.

On to `Cc1ccc(CNC(=O)N2CCc3c(c4ccccc4n3Cc3cccc(F)c3)C2)cc1` [BC20331], for which the “E: compound efficacy for NMNAT2 activation (concentration giving >25% increase in NMNAT2 luciferase activity)” value is listed as “+ (“+” >25% increase in NMNAT2 luciferase activity at >25 μM.)”. Turning to `O=C(Cn1cc(C(=O)c2ccc(Cl)cc2)c2ccccc21)NCCc1ccccc1` [BC20215], the “E: compound efficacy for NMNAT2 activation (concentration giving >25% increase in NMNAT2 luciferase activity)” value is reported as “++ (“++” >25% increase in NMNAT2 luciferase activity at >1 μM ≤25 μM.)”. The same measure for `Cc1ccc(C)c(Cn2c3c(c4ccccc42)CC(C(=O)NCc2ccccc2F)CC3)c1` (centres unmarked) [BC20217]: “+ (“+” >25% increase in NMNAT2 luciferase activity at >25 μM.)”; for `Cc1ccc(C)c(Cn2c(C(F)F)c(CCC(=O)NCc3cccc(F)c3)c3ccccc32)c1` [BC20394]: “+ (“+” >25% increase in NMNAT2 luciferase activity at >25 μM.)”; for `Cc1ccc(Cn2cc([C@H]3C[C@@H]3C(=O)NCc3cccc(F)c3)c3ccccc32)cc1` (racemic) [BC20295]: “+ (“+” >25% increase in NMNAT2 luciferase activity at >25 μM.)”. Next, `Cc1cccc(CNC(=O)C2CCc3c(c4ccccc4n3CC(=O)NCc3ccco3)C2)c1` (centres unmarked) [BC20239]: “++ (“++” >25% increase in NMNAT2 luciferase activity at >1 μM ≤25 μM.)”; `Cc1ccc(CNC(=O)C2CCc3c(c4ccccc4n3CC(=O)NCc3ccco3)C2)o1` (centres unmarked) [BC20236]: “++ (“++” >25% increase in NMNAT2 luciferase activity at >1 μM ≤25 μM.)”; `Cc1ccc(C)c(Cn2c3c(c4ccccc42)CC(C(=O)NCc2ccccc2C)CC3)c1` (centres unmarked) [BC20185]: “++ (“++” >25% increase in NMNAT2 luciferase activity at >1 μM ≤25 μM.)”.

Regarding `Cc1ccc(C)c(Cn2c3c(c4ccccc42)CC(C(=O)NCc2cccnc2)CC3)c1` (centres unmarked) [BC20189], the “E: compound efficacy for NMNAT2 activation (concentration giving >25% increase in NMNAT2 luciferase activity)” value is recorded as “++ (“++” >25% increase in NMNAT2 luciferase activity at >1 μM ≤25 μM.)”. Next, `CCOC(=O)Cn1cc(C2=CC(=O)NCC2)c2ccccc21` [BC20234]: “++ (“++” >25% increase in NMNAT2 luciferase activity at >1 μM ≤25 μM.)”; `Cc1ccc(C)c(Cn2cc([C@H]3C[C@@H]3C(=O)NCc3ccco3)c3ccccc32)c1` (racemic) [BC20344]: “+ (“+” >25% increase in NMNAT2 luciferase activity at >25 μM.)”.

With `O=C1CC(c2cn(Cc3cccc(F)c3)c3ccccc23)CCN1CCOc1ccc(F)cc1` (centres unmarked) [BC20340], the “E: compound efficacy for NMNAT2 activation (concentration giving >25% increase in NMNAT2 luciferase activity)” value is “+ (“+” >25% increase in NMNAT2 luciferase activity at >25 μM.)”.

In the case of `O=C1CC(c2cn(Cc3cccc(F)c3)c3ccccc23)CCN1Cc1ccccc1F` (centres unmarked) [BC20318], the “E: compound efficacy for NMNAT2 activation (concentration giving >25% increase in NMNAT2 luciferase activity)” value was “+ (“+” >25% increase in NMNAT2 luciferase activity at >25 μM.)”. The same measure for `Cc1cccc(NC(=O)N2CCc3c(c4ccccc4n3Cc3ccncc3)C2)c1C` [BC20336]: “+ (“+” >25% increase in NMNAT2 luciferase activity at >25 μM.)”.

With `CCCCN(CC)Cc1ccc(CNC(=O)C2CCc3c(c4ccccc4n3Cc3cc(C)ccc3C)C2)o1` (centres unmarked) [BC20219], the “E: compound efficacy for NMNAT2 activation (concentration giving >25% increase in NMNAT2 luciferase activity)” value is on record as “++ (“++” >25% increase in NMNAT2 luciferase activity at >1 μM ≤25 μM.)”. On to `CCCCN(CC)Cc1ccc(CNC(=O)CCCc2cn(Cc3cccc(F)c3)c3ccccc23)o1` [BC20212], for which the “E: compound efficacy for NMNAT2 activation (concentration giving >25% increase in NMNAT2 luciferase activity)” value is “+++ (“+++” >25% increase in NMNAT2 luciferase activity at ≤1 μM.)”. Next, `Cc1cccc(CNC(=O)CCCc2cn(Cc3ccccc3F)c3ccccc23)c1` [BC20126]: “++ (“++” >25% increase in NMNAT2 luciferase activity at >1 μM ≤25 μM.)”; `O=C(NCCc1ccccc1)N1CCc2c(c3ccccc3n2Cc2cccc(F)c2)C1` [BC20311]: “+ (“+” >25% increase in NMNAT2 luciferase activity at >25 μM.)”; `O=C(CCCc1cn(Cc2cccc(F)c2)c2ccccc12)NCC1CCCO1` (centres unmarked) [BC20137]: “++ (“++” >25% increase in NMNAT2 luciferase activity at >1 μM ≤25 μM.)”.

In the case of `Cc1ccccc1Cn1c(C)c(C)c2cc(C(=O)NCCc3ccccc3)ccc21` [BC20251], the “E: compound efficacy for NMNAT2 activation (concentration giving >25% increase in NMNAT2 luciferase activity)” value is “++ (“++” >25% increase in NMNAT2 luciferase activity at >1 μM ≤25 μM.)”. For the molecule `Cc1c(C)n(Cc2ccccc2F)c2ccc(C(=O)NCc3cccnc3)cc12` [BC20108], the “E: compound efficacy for NMNAT2 activation (concentration giving >25% increase in NMNAT2 luciferase activity)” value is “+++ (“+++” >25% increase in NMNAT2 luciferase activity at ≤1 μM.)”.
